This is an account of results in patent US20230103444A1 (The Regents of the University of Colorado, a Body Corporate, priority 2020, published 2023).

By IC50 is commonly meant the concentration needed to halve the response being measured.

Data set [1] is described as follows: Pharmacokinetics in CD-1 mice. The following applies: oral gavage (p.o.) 50 mg/kg. On the procedure:
Whole blood was harvested at specific time points and the separated plasma frozen at −80° C. for storage or used for LC-MS/MS analysis.

The next data set has as its system HCT116 tumor organoids. In words: Tumor organoid cytotoxicity (CellTiter-Glo 3D). The data set is classed as cell-based, human. The settings on record: Homo sapiens. The procedure:
(§1) Cell based cytotoxicity dose response and combination studies. […] Plates were then incubated for 3 days before treatment.
Cell Line Tumor Organoid Culture.
(§2) Tumor Organoid Cytotoxicity.

Data set [2] relates to SW620 tumor organoids. In words: Synergy studies with SN38 (LOEWE synergy scores). In kind it is cell-based, human. On the set-up: key to LOEWE Synergy Score: % response beyond expectation; <-10 antagonism, -10–10 additive, >10 synergy. The following applies: for LOEWE Synergy Score: compound at its IC50 (6: 5 μM; 6.3, 6.11: 3 μM). On the procedure:
as §1
(e.g., synergy score 20 corresponds to 20% of response beyond expectation). According to our experience, the synergy scores near 0 gives limited confidence on synergy or antagonism.
When the synergy score is: • Less than −10: the interaction between two drugs is likely to be antagonism; • From −10 to 10: the interaction between two drugs is likely to be additivity; • Larger than 10: the interaction between two drugs is likely to be synergy.

Data set [3] deals with CRC102 patient-derived tumor organoids. Kind of data set: Patient tumor organoid cytotoxicity. The data set is classed as cell-based. The following applies: Homo sapiens; single agent, Table 4A. On the procedure: Patient Cell Tumor Organoid Culture. CRC048 and CRC102 patient cell samples were expanded and cultured as PDTOs using reported methodologies and reagents. (Drost et al., 2016; Sato et al., 2011) Briefly, patient cells were washed with PBS, digested with TrypLE, and filtered through 100 μm cell strainer before used in 3D cell culture. Patient cells were seeded at 5,000 cells per well in 96-well plates, coated with 2% Matrigel, and allowed to self-assemble as PDTOs over 72 h.
as §2

Data set [4] is described as follows: Human microsomal stability. The following applies: human microsomes, Table 6, read-out: Microsomal stability Human t1/2. In kind it is in vitro ADME.
Data set [5] concerns SW620 quasi-mesenchymal (GFP+) tumor xenografts. In words: Antitumor activity by oral gavage against SW620 quasi-mesenchymal (GFP+) xenografts. In kind it is in vivo, athymic nude mice. The procedure:
(Esquer et al., 2021) Five days after cell injection, injected mice were randomized into three groups for treatment (Tx). Group 1 (12 mice) received control treatment of gavage vehicle (10% DMSO, 90% PEG 400 (polyethylene glycol 400) by volume). […] Mice were treated once a day, 5 days a week PO (via oral gavage). Mice were weighed and tumor volume assessed twice a week by caliper measurement as illustrated in FIGS. 21A and 21B. At sacrifice, tumors were weighed and measured. In addition, gross observations on condition of mice were made and samples of plasma, tumors, liver spleen and kidneys were collected for further assessment, e.g., drug quantification and toxicity assessment.

For data set [6], the system named is CRC042 patient-derived tumor organoids. In words: Patient tumor organoid cytotoxicity. The following applies: Homo sapiens; single agent, Table 4A. The data set is classed as cell-based.
A short description of data set [7]: Mouse liver microsome stability. The settings on record: CD-1, mouse, liver microsomes, pH 7.4, Microsomal stability Mouse t1/2 (min), Table 6. On the technique in general: Liver microsomes are a subcellular fraction often used to study metabolism.
Description: Microsome stability. CD-1 mouse microsomes were commercially purchased and the reactions were performed as previously described. […] The master mix was pre-incubated at 37° C. for 5 min, then 1 mM NADPH was added to start the microsomal activity reaction and maintained at 37° C. throughout the time course. Reactions were stopped at 0, 5, 15, 30, 45, and 60 min by adding 200 μL acetonitrile and analyzed by mass spectrometry. The appropriate microsome controls were also performed in the same reaction conditions.
For data set [8], the system named is SW620 tumor organoids. In words: Tumor organoid cytotoxicity (CellTiter-Glo 3D). The settings on record: Homo sapiens. (ATP-based viability assays read luminescence as a measure of living cells.)
In data set [9] the test system is SW620 tumor organoids.
[10] abbreviates: combination of 6.11 and irinotecan.

Read-outs that look alike come from different tables or passages of the source.

Description for SW620 tumor xenografts: In vivo studies. […] Body weight and tumor volumes were monitored 2×/week. […] In addition, irinotecan was administered i.p. at 50 mg/kg.

As to `Cc1cc(Nc2ccc(NC(=O)Cc3cc(Br)cs3)cc2)nc(N2CCCC2)n1` [Compound 6.11, 2-(4-bromothiophen-2-yl)-N-(4-((6-methyl-2-(pyrrolidin-1-yl)pyrimidin-4-yl)amino)phenyl)-acetamide], the “oral bioavailability, uptake in the plasma” value in data set [1] is recorded as 44%. Also, the 50% inhibitory concentration (IC50) with HCT116 tumor organoids (HCT-116, 72 h, Table 6, read-out: 3 D Cytotoxicity 72 hr IC50 (μM) HCT116) was 3.5 µM; in the data set on HCT116 tumor organoids (HCT-116, single agent, Table 4A, read-out: Tumor Organoid Cytotoxicity IC50 (μM) HCT116) it was 3.48 µM; in data set [3], 8.38 µM; in [6] it was 4.5 µM; in the data set on SW620 tumor organoids [8] (SW-620, 72 h, read-out: 3 D Cytotoxicity 72 hr IC50 (μM) SW620), 2.6 µM; with SW620 tumor organoids [8] (SW-620, read-out: IC50 of cytotoxicity in SW620 cells), under 10 µM. Besides, the IC50 in the data set with SW620 tumor organoids [8] (SW-620, read-out: Tumor Organoid Cytotoxicity IC50 (μM) SW620) amounted to 2.6 µM. Further, the “LOEWE Synergy Score” value with SW620 tumor organoids [2] (SN38 0.64 nM) was found to be 46; in the data set with SW620 tumor organoids [2] (SN38 16 nM), 52; with SW620 tumor organoids [2] (SN38 80 nM), 49; with SW620 tumor organoids [2] (SN38 400 nM), 48; in the data set with SW620 tumor organoids [2] (SN38 2000 nM) it was 36; in the data set on SW620 tumor organoids [2] (SN38 10000 nM) it was 25. Also, the “LOEWE Synergy Score” value in the data set on SW620 tumor organoids [2] (SN38 […]) is on record as 54. Also, the “synergism with irinotecan (and SN38), in words” value in the data set with SW620 tumor organoids [2] (killing SW620 tumor organoids) was “synergism”. Moreover, in data set [4], the half-life came out at 4.38 h. Besides, in [5] (oral gavage 75 and 125 mg/kg vs vehicle), the mouse body weight result is listed as “no significant difference in body weight”. Further, the tumor volume result in [5] (oral gavage 75 and 125 mg/kg, once a day 5 days a week, 27 days) was “significant dose dependent decrease in tumor volume”. In data set [7], this compound registered a half-life at 10 μM of 0.954 h. The “tumor volume, combination with irinotecan” value with SW620 tumor xenografts (6.11 1×/day + irinotecan 50 mg/kg i.p., up to 20 days, M-phenotype xenografts, vs irinotecan alone or control) was “significantly inhibits colorectal cancer SW620 tumor xenografts”. Also, the “tumor volume after the last treatment, combination with irinotecan” value with SW620 tumor xenografts (6.11 + irinotecan vs irinotecan alone, last treatment day 33) was “significantly inhibits colorectal SW620 tumors beyond the last treatment”. For the same compound, the “survival of tumor-bearing mice, combination with irinotecan” value with SW620 tumor xenografts (6.11 + irinotecan, compared to irinotecan alone and control) was “significantly increases the survival”. Moreover, the “difference in tumor volume, irinotecan alone vs combination, 8 days post treatment” value with SW620 tumor xenografts (setting [10]) is listed as 3.4 fold. Further, the “drop of tumor volume post treatment” value in the data set with SW620 tumor xenografts (setting [10]) is about 1.5 fold.

`Cc1cc(Nc2ccc(NC(=O)Cn3cnc4ccccc43)cc2)nc(N2CCCC2)n1` [Compound 6.28, 2-(1H-benzo[d]imidazole-1-yl)-N-(4-((6-methyl-2-(pyrrolidin-1-yl)pyrimidin-4-yl)amino)phenyl) acetamide] showed a half-maximal inhibitory concentration (IC50) in the data set with SW620 tumor organoids [9] of over 30 µM.
